# In BindingDB's records for doi:10.1021/jm970446z (National Institute of Diabetes, 1998):
# Biological target: T1, Adenosine receptor A1 (Rattus norvegicus, UniProt P25099)
# T1 sequence (P25099 whole entry): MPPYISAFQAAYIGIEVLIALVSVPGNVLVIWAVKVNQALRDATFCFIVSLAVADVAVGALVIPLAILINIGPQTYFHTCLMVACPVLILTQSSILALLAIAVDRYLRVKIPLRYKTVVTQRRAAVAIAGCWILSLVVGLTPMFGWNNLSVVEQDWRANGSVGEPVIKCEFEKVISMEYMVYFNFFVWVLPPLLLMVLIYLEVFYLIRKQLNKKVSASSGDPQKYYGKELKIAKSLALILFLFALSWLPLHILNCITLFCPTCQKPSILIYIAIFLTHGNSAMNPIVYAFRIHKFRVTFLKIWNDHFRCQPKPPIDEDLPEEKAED
# Assay: Ability to displace [3H]N6-phenylisopropyladenosine binding from adenosine A1 receptor.
row,Ki,SMILES
1,8.13 µM,COc1cc(O)c2c(c1)O[C@H](c1ccc(O)cc1)CC2=O [5-hydroxy-2-(4-hydroxyphenyl)-7-methoxychroman-4-one]
2,50.1 µM,COc1ccc2c(c1)C(=O)C(O)C(C#Cc1ccccc1)O2 (stereo unspecified)

# Biological target: Adenosine receptor A2a (Rattus norvegicus, UniProt P30543)
# Sequence (P30543 whole entry): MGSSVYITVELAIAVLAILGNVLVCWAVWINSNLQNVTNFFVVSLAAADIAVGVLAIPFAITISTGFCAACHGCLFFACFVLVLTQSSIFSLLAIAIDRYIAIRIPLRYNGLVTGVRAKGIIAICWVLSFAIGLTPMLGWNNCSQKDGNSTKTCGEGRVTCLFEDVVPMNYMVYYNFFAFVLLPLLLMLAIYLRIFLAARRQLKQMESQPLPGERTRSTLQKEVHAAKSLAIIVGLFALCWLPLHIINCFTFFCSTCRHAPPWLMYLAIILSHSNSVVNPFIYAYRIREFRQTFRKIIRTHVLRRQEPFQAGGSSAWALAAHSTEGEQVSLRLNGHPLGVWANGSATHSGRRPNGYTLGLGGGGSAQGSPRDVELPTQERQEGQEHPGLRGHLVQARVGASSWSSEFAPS
# Assay: Ability to displace [3H]-CGS- 21680 binding from adenosine A2A receptor.
row,Ki,SMILES
1,55 µM,O=c1c(Cl)c(-c2ccccc2)oc2ccc(Cl)cc12 [NSC-74876]
2,25.1 µM,O=c1c(Cl)c(-c2ccccc2)oc2ccccc12 [3-Chloro-2-phenyl-chromen-4-one]
3,26.3 µM,"CCOc1ccc(-c2oc3cc(OCC)cc(OCC)c3c(=O)c2OCC)c(OCC)c1 [2-(2,4-Diethoxy-phenyl)-3,5,7-triethoxy-chromen-4-one]"
4,166 µM,"CCOc1c2ccoc2cc2oc(/C=C/C=C/c3ccccc3)cc(=O)c12 [4-Ethoxy-7-((1E,3E)-4-phenyl-buta-1,3-dienyl)-furo[3,2-g]chromen-5-one]"
5,34.7 µM,"COc1ccc(-c2cc(=O)c3ccc(O)cc3o2)cc1OC [2-(3,4-dimethoxyphenyl)-7-hydroxy-4H-chromen-4-one]"
6,56.2 µM,CC(=O)Oc1cc(OC(C)=O)c2c(c1)OC(c1ccccc1)C(OC(C)=O)C2=O (stereo unspecified)

row,SMILES,Ki
1,"COc1c(O)cc2oc(-c3ccc(O)cc3)cc(=O)c2c1O [5,7-dihydroxy-2-(4-hydroxyphenyl)-6-methoxy-4H-chromen-4-one]",7.59 µM

# Biological target: T2, Adenosine receptor A3 (Homo sapiens, UniProt P0DMS8)
# T2 sequence (P0DMS8 whole entry): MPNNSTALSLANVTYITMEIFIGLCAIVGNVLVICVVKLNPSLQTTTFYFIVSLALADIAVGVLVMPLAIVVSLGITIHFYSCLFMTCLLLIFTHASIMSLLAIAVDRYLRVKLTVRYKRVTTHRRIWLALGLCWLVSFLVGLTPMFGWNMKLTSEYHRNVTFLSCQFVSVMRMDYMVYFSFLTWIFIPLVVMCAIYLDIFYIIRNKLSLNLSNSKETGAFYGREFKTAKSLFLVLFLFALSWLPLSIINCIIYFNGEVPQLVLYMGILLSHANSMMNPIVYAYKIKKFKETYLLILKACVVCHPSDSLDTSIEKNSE
# Assay: Ability to displace [125I]-AB-MECA binding from adenosine A3 receptor.
row,Ki,SMILES
1,50.1 µM,COc1ccc(-c2cc(=O)c3c(O)cc(C)cc3o2)cc1 [5-Hydroxy-2-(4-methoxy-phenyl)-7-methyl-chromen-4-one]
2,22.9 µM,"O=C1C[C@@H](c2ccc(O)cc2)Oc2ccccc21 [2-(4-hydroxyphenyl)-2,3-dihydro-4H-chromen-4-one]"
3,3.39 µM,COc1cc(O)c2c(c1)O[C@H](c1ccc(O)cc1)CC2=O [5-hydroxy-2-(4-hydroxyphenyl)-7-methoxychroman-4-one]
4,8.13 µM,COc1ccc2c(c1)C(=O)C(O)C(C#Cc1ccccc1)O2 (stereo unspecified)
5,0.831 µM,"COc1cc(OC)c2c(=O)c(OC)c(-c3ccccc3)oc2c1 [3,5,7-Trimethoxy-2-phenyl-chromen-4-one]"
6,6.61 µM,"COc1cc(OC)c2c(=O)c(OC)c(-c3cc(OC)c(OC)c(OC)c3)oc2c1 [3,5,7-Trimethoxy-2-(3,4,5-trimethoxy-phenyl)-chromen-4-one]"
7,3.16 µM,COc1cc2oc(-c3ccc(O)cc3)cc(=O)c2c(O)c1OC [cirsimartin]
8,0.589 µM,O=c1c(O)c(-c2ccccc2)oc2cc(O)cc(O)c12 [norizalpinin]
9,16.2 µM,"O=C1CC(c2ccccc2)Oc2ccccc21 (stereo unspecified) [2-phenyl-2,3-dihydro-4H-chromen-4-one]"
10,0.191 µM,CCOc1c(-c2c(C)cc(C)cc2C)oc2ccc(Cl)cc2c1=O
11,4.57 µM,COC1(OC)Cc2oc(-c3ccc(O)cc3O)c(CC=C(C)C)c(=O)c2C(O)=C1/C=C/C(C)C
12,0.562 µM,Cc1ccc(-c2oc3ccc(Cl)cc3c(=O)c2Cl)c(C(C)C)c1 [NSC-74899]
